Here are results for five molecules from PMC12566046, “Arylpiperazinyl-Benzocycloheptapyrrole-Carboxamides Endowed with Dual Anticancer and Antiviral Activities” (Molecules, 2025).

Series [1] deals with HT29 (colon cancer cell line). Kind of series: NCI-60 five-dose assay. It counts as cell-based, human. Particulars: Homo sapiens, HT-29, five doses (10^−4–10^−8 M), read-out: Growth inhibition 50 (GI50).
Series [2] deals with UACC-257 (melanoma cell line). Kind of series: NCI-60 five-dose assay. Particulars: for GI50: UACC-257, read-out: Growth inhibition 50 (GI50); for TGI (molar concentration giving total growth inhibition): UACC-257.
The test system of a further series is SR (leukemia cell line). The series is described as follows: NCI-60 five-dose assay. It counts as cell-based, human. Conditions: Homo sapiens, five doses (10^−4–10^−8 M), read-out: Growth inhibition 50 (GI50).
The test system of another series is Leukemia panel. Kind of series: NCI-60 five-dose assay, panel-level GI50 (mean graph midpoint, range). It counts as cell-based, human. Conditions: Homo sapiens; Leukemia panel average; read-out: GI50 mean graph midpoint (MG_MID). On the procedure: (§1) Due to these preliminary results, six compounds, 1, 5, 10, 11, 17, and 20, were selected for the five-dose screen NCI-programme against the same panel of tumour cell lines.
(§2) Next, a mean graph midpoint (MG_MD) was calculated for compounds 1, 5, 10, 11, 17, and 20 and reported as waterfall graphs GI50, TGI, and LC50 in the Supplementary Materials (Figures S69–S86). In Table 9, we reported the average GI50 for the nine-cancer panels, underlining both the activity and selectivity for compounds 1, 10, 11, and 20.

Another series concerns Melanoma panel. Described as above. It counts as cell-based, human. Particulars: Homo sapiens. As to the method: as §1, §2
Another series concerns Colon Cancer panel. The series is described as above. It counts as cell-based, human. Conditions: Homo sapiens; Colon Cancer panel average; read-out: GI50 mean graph midpoint (MG_MID). As to the method:
as §1, §2

Series [3] concerns LOX IMVI (melanoma cell line). Kind of series: NCI-60 five-dose assay. Conditions: for GI50: read-out: Growth inhibition 50 (GI50).
Another series has as its system M14 (melanoma cell line). Kind of series: NCI-60 five-dose assay. Conditions: for GI50 / CC50: Homo sapiens; for GI50: M14, read-out: Growth inhibition 50 (GI50); for CC50: M14, read-out: LC50 (molar concentration leading to 50% net cell death); for TGI (molar concentration giving total growth inhibition): M14.
Series [4] relates to HL-60(TB) (leukemia cell line). Kind of series: NCI-60 five-dose assay. It counts as cell-based, human. Particulars: Homo sapiens, five doses (10^−4–10^−8 M), read-out: Growth inhibition 50 (GI50).
In series [5] the test system is MDA-MB-435 (melanoma cell line). The series is described as follows: NCI-60 five-dose assay. Conditions: for GI50 / CC50: Homo sapiens; for GI50: MDA-MB-435, read-out: Growth inhibition 50 (GI50); for CC50: MDA-MB-435, read-out: LC50 (molar concentration leading to 50% net cell death); for TGI (molar concentration giving total growth inhibition): MDA-MB-435.
Series [6] relates to UACC-62 (melanoma cell line). The series is described as follows: NCI-60 five-dose assay. Conditions: for GI50: UACC-62, read-out: Growth inhibition 50 (GI50); for TGI (molar concentration giving total growth inhibition): UACC-62.
Series [7] deals with SW-620 (colon cancer cell line). The series is described as follows: NCI-60 five-dose assay. Conditions: Homo sapiens; SW-620; five doses (10^−4–10^−8 M); read-out: Growth inhibition 50 (GI50). It counts as cell-based, human.
Series [8] deals with MALME-3M (melanoma cell line). The series is described as follows: NCI-60 five-dose assay. Conditions: for GI50 / CC50: Homo sapiens, Malme-3M; for GI50: read-out: Growth inhibition 50 (GI50); for CC50: read-out: LC50 (molar concentration leading to 50% net cell death); for TGI (molar concentration giving total growth inhibition): MALME-3M.
The subject of series [9] is HCC-2998 (colon cancer cell line). Kind of series: NCI-60 five-dose assay. It counts as cell-based, human. Particulars: Homo sapiens, five doses (10^−4–10^−8 M), read-out: Growth inhibition 50 (GI50).
For series [10], the system named is HCT-15 (colon cancer cell line). Kind of series: NCI-60 five-dose assay. It counts as cell-based, human. Particulars: Homo sapiens, five doses (10^−4–10^−8 M), read-out: Growth inhibition 50 (GI50).
The test system of series [11] is HCT-116 (colon cancer cell line). The series is described as follows: NCI-60 five-dose assay. It counts as cell-based, human. Particulars: Homo sapiens, five doses (10^−4–10^−8 M), read-out: Growth inhibition 50 (GI50).
Series [12] deals with SK-MEL-2 (melanoma cell line). The series is described as follows: NCI-60 five-dose assay. Particulars: for GI50 / CC50: Homo sapiens; for GI50: SK-MEL-2, read-out: Growth inhibition 50 (GI50); for CC50: SK-MEL-2, read-out: LC50 (molar concentration leading to 50% net cell death); for TGI (molar concentration giving total growth inhibition): SK-MEL-2.
The test system of series [13] is KM12 (colon cancer cell line). The series is described as follows: NCI-60 five-dose assay. It counts as cell-based, human. Particulars: Homo sapiens, five doses (10^−4–10^−8 M), read-out: Growth inhibition 50 (GI50).
The subject of series [14] is SK-MEL-28 (melanoma cell line). Kind of series: NCI-60 five-dose assay. Conditions: for GI50: SK-MEL-28, read-out: Growth inhibition 50 (GI50); for TGI (molar concentration giving total growth inhibition): SK-MEL-28.
Series [15] relates to NCI cancer panel (all cell lines). Kind of series: NCI-60 five-dose assay, overall mean graph midpoint (MG_MID). It counts as cell-based, human. Particulars: Homo sapiens; MG_MID over all panels; read-out: GI50 mean graph midpoint (MG_MID). As to the method: as §1, §2
Series [16] deals with K-562 (leukemia cell line). The series is described as follows: NCI-60 five-dose assay. It counts as cell-based, human. Particulars: Homo sapiens, K562, five doses (10^−4–10^−8 M), read-out: Growth inhibition 50 (GI50).
For series [17], the system named is OVCAR-4 (ovarian cancer cell line). Kind of series: NCI-60 single-dose assay. It counts as cell-based, human. A digest of the protocol:
(§3)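 Cytotoxicity was screened at a single dose across the NCI-60 human tumour cell panel, which covers leukemia, melanoma and lung, colon, CNS, ovarian, renal, prostate and breast cancers.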

Series [18] deals with PC-3 (prostate cancer cell line). The series is described as follows: NCI-60 single-dose assay. It counts as cell-based, human. An outline of the steps:
as §3

Series [19] deals with RXF 393 (renal cancer cells). Kind of series: NCI-60 five-dose assay. It counts as cell-based, human. Particulars: Homo sapiens, five-dose screen.
Series [20] has as its system SF-295 (CNS cancer cell line). Kind of series: NCI-60 single-dose assay. Particulars: SF-295; single-dose assay. It counts as cell-based, human. An outline of the steps: as §3
Series [21] concerns MDA-MB-468 (breast cancer). The series is described as follows: NCI-60 five-dose assay. Conditions: Homo sapiens, five-dose screen. It counts as cell-based, human.
In a further series the test system is MDCK cells. Particulars: dog.
Where [22] appears, read: Melanoma panel average, read-out: GI50 mean graph midpoint (MG_MID).

Like-named read-outs stand apart in the source and are kept apart here.

As for `O=C(NCCCN1CCN(Cc2ccccc2)CC1)c1c(Cl)[nH]c2c1CCCc1ccccc1-2` [Compound 20, N-(3-(4-Benzylpiperazin-1-yl)propyl)-2-chloro-1,4,5,6-tetrahydrobenzo[6,7]cyclohepta[1,2-b]pyrrole-3-carboxamide], the GI50 in series [1] came to 4.03 µM; in [2] (Homo sapiens) it was 1.87 µM; in the series on SR (leukemia cell line) it was 0.53 µM; in the series on Leukemia panel, 3.39 µM; with Melanoma panel (setting [22]), 3.39 µM; in the series on Colon Cancer panel, 4.17 µM. For the same molecule, the concentration for 50% growth inhibition (GI50) in [3] (Homo sapiens) came out at 4.33 µM; with M14 (melanoma cell line), 2.01 µM; in [4] it was 5.06 µM; in [5] it was 4.9 µM; in [6] (Homo sapiens) it was 6.93 µM; in [7], 3.59 µM. In addition, the GI50 in [8] amounted to 2.02 µM; in series [9], 1.77 µM; in series [10], 7.78 µM; in series [11], 5.5 µM; in [12] it was 13.7 µM; in series [13] it was 9.38 µM. Besides, the GI50 in [14] (Homo sapiens) was found to be 2.11 µM; in series [15], 6.76 µM; in series [16], 2.97 µM. In addition, the CC50 in series [2] (Homo sapiens, UACC-257, read-out: LC50 (molar concentration leading to 50% net cell death)) came to 26.9 µM; in [3] (Homo sapiens, read-out: LC50 (molar concentration leading to 50% net cell death)), 40.7 µM; in the series on M14 (melanoma cell line), 8.71 µM; in [5], 49 µM; in series [6] (Homo sapiens, UACC-62, read-out: LC50 (molar concentration leading to 50% net cell death)), 45.7 µM; in [8] it was 7.76 µM. Further, the CC50 in series [12] turned out to be 53.7 µM; in [14] (Homo sapiens, SK-MEL-28, read-out: LC50 (molar concentration leading to 50% net cell death)) it was 13.2 µM. The “TGI (molar concentration giving total growth inhibition)” value was determined as 6.61 µM in [2]; 15.85 µM in series [3]; 4.17 µM in the series on M14 (melanoma cell line); 17.78 µM in series [5]; 19.95 µM in [6]; 3.98 µM in series [8]. The “TGI (molar concentration giving total growth inhibition)” value in series [12] came out at 26.91 µM; in [14], 4.9 µM.

As to `COc1ccccc1N1CCN(CCNC(=O)c2c(Cl)[nH]c3c2CCCc2ccccc2-3)CC1` [Compound 15], the “growth inhibition (GI%)” value was determined as 66.06% in [17] and 75.11% in series [18].

In the case of `CCOc1ccccc1N1CCN(CCNC(=O)c2c(Cl)[nH]c3c2CCCc2ccccc2-3)CC1` [Compound 17], the GI50 in [19] stood at 2.57 µM.

With `O=C(NCCCN1CCN(c2ccccc2)CC1)c1cc2c([nH]1)-c1ccccc1CCC2` [Compound 10, N-(3-(4-Phenylpiperazin-1-yl)propyl)-1,4,5,6-tetrahydrobenzo[6,7]cyclohepta[1,2-b]pyrrole-2-carboxamide], in series [20], the “growth inhibition (GI%) and cytotoxicity (negative values)” value is given as 90.84%. Also, the GI50 in [1] was 3.14 µM; in series [2] (Homo sapiens) it was 2.29 µM; in the series with SR (leukemia cell line), 2.29 µM; in the series with Leukemia panel it was 2.95 µM; with Melanoma panel (setting [22]), 4.07 µM; in the series on Melanoma panel (five-dose screen, number of cell lines as named in the sentence, read-out: GI50, range over melanoma cell lines) it was 1.65 to 2.78 µM. The GI50 with Colon Cancer panel stood at 3.98 µM; in series [3] (Homo sapiens) it was 3.62 µM; in the series with M14 (melanoma cell line), 2.78 µM; in [4], 5.58 µM; in series [5], 7.88 µM; in [6] (Homo sapiens) it was 9.02 µM. Also, the GI50 in [7] was 8.89 µM; in [21], 2.93 µM; in [8], 1.65 µM; in series [9] it was 2.51 µM; in series [10] it was 4.71 µM; in series [11], 4.83 µM. Also, the GI50 in [12] is 14.9 µM; in [13], 4.89 µM; in series [14] (Homo sapiens), 2.51 µM; in series [19], 2.06 µM; in series [15] it was 7.24 µM; in series [16] it was 2.58 µM. The “TGI (molar concentration giving total growth inhibition)” value in [2] was 6.61 µM; in series [3], 19.5 µM; in the series on M14 (melanoma cell line), 8.51 µM; in series [5], 18.62 µM; in series [6], 25.12 µM; in series [8] it was 4.36 µM. Moreover, the entries for the “TGI (molar concentration giving total growth inhibition)” value in series [12] and in series [14] were 34.67 µM and 8.51 µM, respectively. Moreover, the CC50 was determined as 44.7 µM in the series with M14 (melanoma cell line), 40.7 µM in [5], 15.5 µM in [8] and 81.3 µM in series [12].

Consider `O=C(NCCN1CCN(c2ccc(Cl)cc2)CC1)c1c(Cl)[nH]c2c1CCCc1ccccc1-2` [Compound 13], for which the “IAV/MDCK CC50” value in the series with MDCK cells came out at 225.00 µM.
